{"source": "paper PMC5991599", "about": "“Anti‐tumor efficacy of a novel CLK inhibitor via targeting RNA splicing and MYC‐dependent vulnerability” (EMBO Molecular Medicine, 2018)", "assay": "Pharmacokinetics evaluation, unbound plasma concentration after oral administration", "format": "in vivo", "settings": "nude mice, mean, calculated using protein binding", "description": "The black dotted line indicates the relative ATP value prior to treatment (Day 0). • C The number of AS events modulated by T‐025 treatment for 6 h in MDA‐MB‐468 cells. The numbers of AS events with a BF > 20 and |ΔPSI| > 0.1 were counted and categorized according to the AS type (SE, skipped exon; RI, retained intron; A5′SS, alternative 5′‐splice‐site; A3′SS, alternative 3′‐splice‐site; MEE, mutually exclusive exon; AFE, alternative first exon; ALE, alternative last exon). • D–F MDA‐MB‐468 xenograft tumors treated with 50 mg/kg of T‐025 were sampled and analyzed by immunohistochemistry […], immunoblotting (E), or RT–PCR (F). Representative images of pCLK2 stained tumors and scale bar (30 μm) are shown. Also shown: The mean unbound plasma T‐025 concentration was calculated using protein binding after oral administration. • G, H Anti‐tumor efficacy of T‐025 in MDA‐MB‐468 xenograft models. T‐025 was administered twice daily on 2 days per week (red arrows). Tumor volume (G) and body weight (H) during the efficacy study are shown as means ± s.e.m. (n = 5). Data information: In (B, D, and F), data are shown as the means ± s.d. of three independent experiments (n = 3). In (G and H), an unpaired Student's t‐test was performed.Source data are available online for this figure. TEXT PRINTED IN THE PICTURE: (D) T-025: Unbound plasma Conc. (nmol/L): 554 (50 mg/kg; 2 h); Unbound plasma Conc. (nmol/L): 97 (50 mg/kg; 4 h); Unbound plasma Conc. (nmol/L): 105 (50 mg/kg; 8 h); Unbound plasma Conc. (nmol/L): 0 (50 mg/kg; 24 h)\nThen, we evaluated T‐025 in an animal model."}
{"smiles": "CNc1nc(NCc2ncccn2)c2c(-c3ccc4ncccc4c3)c[nH]c2n1", "note": "[T-025, N ^2‐methyl‐N ^4‐[pyrimidin‐2‐ylmethyl]‐5‐[quinolin‐6‐yl]‐7H‐pyrrolo[2,3‐d]pyrimidine‐2,4‐diamine]", "values": [{"measurement": "Unbound plasma Conc.", "setting": "oral 50 mg/kg, 8 h", "value": 104, "unit": "nM"}, {"measurement": "concentration at 2 h", "setting": "nude, mouse, plasma, po, 50 mg/kg, 2 h, read-out: Unbound plasma Conc.", "value": 554, "unit": "nM"}, {"measurement": "concentration at 4 h", "setting": "nude, mouse, plasma, po, 50 mg/kg, 4 h, read-out: Unbound plasma Conc.", "value": 97, "unit": "nM"}, {"measurement": "concentration at 8 h", "setting": "nude, mouse, plasma, po, 50 mg/kg, 8 h, read-out: Unbound plasma Conc.", "value": 105, "unit": "nM"}, {"measurement": "concentration at 24 h", "setting": "nude, mouse, plasma, po, 50 mg/kg, 24 h, read-out: Unbound plasma Conc.", "value": 0, "unit": "nM"}]}
